Here are results for 13 compounds from US4610977A, “N-alkyl and N-benzyl adriamycin derivatives” (The University of Tennessee Research Corporation, priority 1985, dated 1986).

pIC50: −log10 of the molar value. Where two headings read alike, the source gives them in different places.

Series [1] relates to malignant tumors. As to conditions: cited from earlier work; for Clinical antitumor effectiveness: certain malignant tumors, e.g. induction of remission in acute leukemia; for Toxicities accompanying chemotherapy: limit effectiveness, particularly long-term use.
The test system of series [2] is murine L1210 leukemia. The series can be described thus: In vivo antitumor activity against murine L1210 leukemia in B6D2F1 male mice. As to conditions: L1210, qd 1-4; for % ILS (percent median increase in life span relative to untreated controls): at optimal dose (Examples 1/2/3: 12.5/20.0/25.0, adriamycin 3.0 mg/kg); for % ILS (percent median increase in life span relative to untreated controls) / LTS (tumor free long term survivors): ip; for LTS (tumor free long term survivors): at optimal dose, day of sacrifice: Examples 1-3 42. The source says:
(§1) The in vivo evaluations were made by preparing a 0.01 to 0.4% by weight solution of the active agent in an aqueous solution of polyethoxylated castor oil (10% by volume) and ethanol (10% by volume) as a carrier and injecting the dosage intraperitoneally. The evaluations were made of the antitumor activity against the murine P 388 and L1210 leukemias in B6D2F1 male mice essentially according to standard National Cancer Institute protocols as set forth by Geran et al., Cancer Chemotherap. Rep., Part 3, Volume 3, pages 1 et seq.

Test in series [3]: as above
To be noted: mouse, in vivo, ip.
From the text: as §1

The nature of series [4]: in vivo. As to conditions: mouse, ip.
From the text: as §1

Series [5] relates to CCRF-CEM cell line. The series can be described thus: Growth inhibition of CCRF-CEM cells in culture, 48 hours continuous drug exposure. The class given is cell-based, child with lymphoblastic leukemia. As to conditions: Homo sapiens. As for the experimental part: The toxicity and therapeutic effectiveness of the new compounds and active agents of the present invention are shown by in vitro assays and by in vivo evaluations in mice. The in vitro assays measure the growth inhibiting activity of the materials against the CCRF-CEM cell line in culture. The cell line was derived from the peripheral blood of a child with lymphoblastic leukemia as described by Foley et al., Cancer, Volume 18, page 522 et seq. (1965), and the assays were carried out by the procedure of Foley and Lazarus, Biochem. Pharmacol., Vol. 16, pages 659 et seq. (1967), the compounds being dissolved in dimethyl sulfoxide and diluted into cell culture media to give a final dimethyl sulfoxide concentration of 1%, the results being reported in terms of the dose in micromoles per liter required to inhibit growth of the cultures by 50% relative to control cultures to which no drug had been added (ID50).
^1 Concentration required to inhibit growth of cultures by 50%
relative to untreated controls; 48 hours continuous drug exposure.

Where [6] appears, read: 48 hours continuous drug exposure, final DMSO 1%, read-out: ID50 (concentration required to inhibit growth of cultures by 50% relative to untreated controls).
Where [7] appears, read: 48 hours continuous drug exposure, read-out: ID50, corresponding compounds having different N-substitution.

For `COc1cccc2c1C(=O)c1c(O)c3c(c(O)c1C2=O)C[C@@](O)(C(=O)CO)C[C@@H]3O[C@H]1C[C@H](N)[C@H](O)[C@H](C)O1` [Adriamycin], in series [1], the Clinical antitumor effectiveness entry is recorded as “effective clinically against certain malignant tumors” and the Toxicities accompanying chemotherapy entry is listed as “a variety of toxicities”. In series [1] (certain solid tumors), the “Clinical efficacy against certain solid tumors” value was “has shown clinical efficacy against certain solid tumors”. In addition, the “All animals dead by day” value in series [2] (adriamycin 3.0 mg/kg, footnote 4) is no more than 22 days. In addition, in series [2], the “% ILS (percent median increase in life span relative to untreated controls)” value is on record as “+90%” and the “LTS (tumor free long term survivors)” value is reported as 0/7. Besides, the MTD in series [3] amounted to 3 mg/kg.
For `CCCCN(CCCC)[C@H]1C[C@H](O[C@H]2C[C@](O)(C(=O)CO)Cc3c(O)c4c(c(O)c32)C(=O)c2c(OC)cccc2C4=O)O[C@@H](C)[C@H]1O` [Di-n-butyl], the MTD in series [4] is 25 mg/kg.
The same measure, in the same setting: to `CCCN(CCC)[C@H]1C[C@H](O[C@H]2C[C@](O)(C(=O)CO)Cc3c(O)c4c(c(O)c32)C(=O)c2c(OC)cccc2C4=O)O[C@@H](C)[C@H]1O` [Di-n-propyl] belongs 20 mg/kg.
Turning to `CCCCC(=O)OCC(=O)[C@]1(O)Cc2c(O)c3c(c(O)c2[C@@H](O[C@H]2C[C@H](NCc4ccccc4)[C@H](O)[C@H](C)O2)C1)C(=O)c1c(OC)cccc1C3=O` [Example 1, N-Benzyladriamycin-14-valerate], in series [5] (setting [6]), the pIC50 is 6.00. The “% ILS (percent median increase in life span relative to untreated controls)” value in series [2] was “> +350%”. Besides, the “LTS (tumor free long term survivors)” value in series [2] was 5/7. The MTD in series [3] stood at 12.5 mg/kg; in series [4], 10 mg/kg.
The corresponding values for `CCCCC(=O)OCC(=O)[C@]1(O)Cc2c(O)c3c(c(O)c2[C@@H](O[C@H]2C[C@H](N(CCC)CCC)[C@H](O)[C@H](C)O2)C1)C(=O)c1c(OC)cccc1C3=O` [Example 2, N,N-Di(n-propyl)adriamycin-14-valerate] are 5.72, “> +350%”, 4/7, 20 mg/kg and 20 mg/kg.
Turning to `CCCCC(=O)OCC(=O)[C@]1(O)Cc2c(O)c3c(c(O)c2[C@@H](O[C@H]2C[C@H](N(CCCC)CCCC)[C@H](O)[C@H](C)O2)C1)C(=O)c1c(OC)cccc1C3=O` [Example 3, N,N-Di(n-butyl)adriamycin-14-valerate], the pIC50 in series [5] (setting [6]) was 5.68. Also, in series [2], the “% ILS (percent median increase in life span relative to untreated controls)” value is recorded as “> +350%” and the “LTS (tumor free long term survivors)” value was 5/7. The same compound registered an MTD in series [3] of 25 mg/kg. Also, the MTD in series [4] stood at 30 mg/kg.
In turn, `COc1cccc2c1C(=O)c1c(O)c3c(c(O)c1C2=O)C[C@@](O)(C(=O)CO)C[C@@H]3O[C@H]1C[C@H](NCc2ccccc2)[C@H](O)[C@H](C)O1` [Mono-N--benzyl] registered an MTD in series [4] of 5 mg/kg.
For the compound `COc1cccc2c1C(=O)c1c(O)c3c(c(O)c1C2=O)C[C@@](O)(C(C)=O)C[C@@H]3O[C@H]1C[C@H](N)[C@H](O)[C@H](C)O1` [daunomycin], in series [1], the Clinical antitumor effectiveness result is recorded as “effective clinically against certain malignant tumors” and the Toxicities accompanying chemotherapy result is given as “a variety of toxicities”.
In the case of `CCCCCCN(CCCCCC)[C@H]1C[C@H](O[C@H]2C[C@](O)(C(=O)COC(=O)CCCC)Cc3c(O)c4c(c(O)c32)C(=O)c2c(OC)cccc2C4=O)O[C@@H](C)[C@H]1O` [di-n-hexyl], the pIC50 in series [5] (setting [7]) was 5.60. This compound also came in with an MTD in series [4] of 40 mg/kg.
On to `CCCCC(=O)OCC(=O)[C@]1(O)Cc2c(O)c3c(c(O)c2[C@@H](O[C@H]2C[C@H](N(Cc4ccccc4)Cc4ccccc4)[C@H](O)[C@H](C)O2)C1)C(=O)c1c(OC)cccc1C3=O` [dibenzyl], for which the pIC50 in series [5] (48 h, read-out: ID50, corresponding compounds having different N-substitution) was less than 5.30. Also, in series [4], the MTD stood at 20 mg/kg.
On to `CCCCC(=O)OCC(=O)[C@]1(O)Cc2c(O)c3c(c(O)c2[C@@H](O[C@H]2C[C@H](N(CC)CC)[C@H](O)[C@H](C)O2)C1)C(=O)c1c(OC)cccc1C3=O` [diethyl], for which the pIC50 in series [5] (setting [7]) is 6.52. This compound had an MTD in series [4] of 8 mg/kg.
As for `CCCCC(=O)OCC(=O)[C@]1(O)Cc2c(O)c3c(c(O)c2[C@@H](O[C@H]2C[C@H](N(C)C)[C@H](O)[C@H](C)O2)C1)C(=O)c1c(OC)cccc1C3=O` [dimethyl], the pIC50 in series [5] (setting [7]) was 7.70.
In the case of `CCCCC(=O)OCC(=O)[C@]1(O)Cc2c(O)c3c(c(O)c2[C@@H](O[C@H]2C[C@H](NCCC)[C@H](O)[C@H](C)O2)C1)C(=O)c1c(OC)cccc1C3=O` [mono-n-propyl, N mono(n-propyl) adriamycin-14-valerate], the pIC50 in series [5] (setting [7]) is 6.77. The compound further showed an MTD in series [4] of 15 mg/kg.
